Test results: patent publication US10570412B2, “Method of increasing resistance against soybean rust in transgenic plants by increasing the scopoletin content” (BASF PLANT SCIENCE COMPANY GMBH, priority 2015, dated 2020)
“Also recorded” adds a separate entry of the source.

Tests used:
[1] = test system: Arabidopsis; test: Phytotoxic effect of scopoletin in Arabidopsis; format: in vivo; conditions: Arabidopsis plants treated with 1 mM scopoletin
Description: For pre-treatment experiments Arabidopsis plants were sprayed with—1 mM scopoletin (solved in H2O, 0.01% Tween-20); incubated for 6 h at short day conditions and subsequently inoculated with 1 mg/ml P. pachyrhizi uredospores. For co-treatment experiments spores of Phakopsora pachyrhizi were solved in 0.01% Tween-20 supplemented with 1 mM scopoletin. Following inoculation plants were covered with moistened plastic domes to ensure high humidity and incubated at short day conditions (see above). 24 h later plastic domes were removed and plants incubated at the same conditions for another 24 h. Leaves were harvested 2 dpi and destained on tissue soaked with a saturated (2.5 g/ml) chloralhydrate solution. Germination and penetration on destained leaves was determined by quantitative microscopic analysis.

[2] = test system: Phakopsora pachyrhizi; test: In vitro germination test of Phakopsora pachyrhizi spores on glass slides; format: cell-based; conditions: 6 h
[3] = test system: Fusarium graminearum; format: cell-based; conditions: 1 mM scopoletin in PDA, compared with PDA+methanol
[4] = test system: soybean; test: Phytotoxic effect of scopoletin in soybean; conditions: soybean plants treated with scopoletin
[5] = test system: Phakopsora pachyrhizi; test: Soybean rust diseased leaf area on scopoletin-treated soybean plants; format: in vivo, Phakopsora pachyrhizi on soybean
[6] = test system: Phakopsora pachyrhizi; test: In vivo spore germination test on Arabidopsis leaves; parameters: species or system Phakopsora pachyrhizi on Arabidopsis thaliana; conditions: 1 mM scopoletin, assessed 48 h after infection

## COc1cc2ccc(=O)oc2cc1O [scopoletin]
[1]
  phytotoxic effect leading to pleiotropic effects: never observed any phytotoxic effect
[2]; 10 μM, 100 μM, 500 μM and 1 mM scopoletin in water, glass slides, dose dependent
  germination and appressorium formation of Phakopsora pachyrhizi spores: decreases the germination and appressoria formation in a dose dependent manner; also recorded: strongly inhibited
[2]; 1 mM scopoletin
  spore germination in-vitro: completely abolishes spore germination
[3]
  reduction of the Fusarium graminearum growth rate per day: 61%
[4]
  phytotoxic effect leading to pleiotropic effects: never observed
[5]; soy plants, 1 mM scopoletin, co-application, primary, first and second trifoliate leaves, 12 dpi
  diseased leaf area caused by Phakopsora pachyrhizi infection: drastically reduced formation of infected leaf area; also recorded: strongly reduced
[5]; soy plants, 1 mM scopoletin, pre-treatment 6 h before inoculation, primary, first and second trifoliate leaves, 12 dpi
  diseased leaf area caused by Phakopsora pachyrhizi infection: drastically reduced formation of infected leaf area; also recorded: strongly reduced
[5]; soybean leaves, co-application of 10 μM, 100 μM or 1 mM scopoletin, dose dependent
  diseased leaf area caused by Phakopsora pachyrhizi infection: strongly reduced in a dose dependent manner
[6]; co-application with inoculation
  germination of Phakopsora pachyrhizi spores on Arabidopsis leaves: drastically reduced formation of germinated spores
[6]; co-application with inoculation, listed as Scopoletin
  germination of Phakopsora pachyrhizi spores on Arabidopsis leaves: strongly inhibited
[6]; pre-treatment 6 h before inoculation
  germination of Phakopsora pachyrhizi spores on Arabidopsis leaves: drastically reduced formation of germinated spores
[6]; pre-treatment 6 h before inoculation, listed as Scopoletin
  germination of Phakopsora pachyrhizi spores on Arabidopsis leaves: strongly inhibited
